Reference: ChEMBL document CHEMBL1909046, “DrugMatrix in vitro pharmacology data”

Columns and labels:
[1] = DRUGMATRIX: ATPase, Na+/K+ enzyme inhibition (substrate: ATP); type: tissue-based, Sus scrofa, Heart; settings: Not Active = under 50% inhibition at 10 µM
[2] = target: Sodium-dependent noradrenaline transporter (Homo sapiens, UniProt P23975); assay: DRUGMATRIX: Norepinephrine Transporter radioligand binding (ligand: [125I] RTI-55); type: cell membranes, MDCK, Membrane; settings: mdck; Not Active = under 50% inhibition at 10 µM
[3] = DRUGMATRIX: Potassium Channel [KATP] radioligand binding (ligand: [3H] Glyburide); type: cell membranes, Membrane; settings: hit-t15, Not Active = under 50% inhibition at 10 µM
[4] = target: T1, Type-2 angiotensin II receptor (Homo sapiens, UniProt P50052); type: cell-based; settings: cho-k1; note: in other assays of this panel Not Active means under 50% inhibition at 10 µM
T1 sequence (P50052 whole entry): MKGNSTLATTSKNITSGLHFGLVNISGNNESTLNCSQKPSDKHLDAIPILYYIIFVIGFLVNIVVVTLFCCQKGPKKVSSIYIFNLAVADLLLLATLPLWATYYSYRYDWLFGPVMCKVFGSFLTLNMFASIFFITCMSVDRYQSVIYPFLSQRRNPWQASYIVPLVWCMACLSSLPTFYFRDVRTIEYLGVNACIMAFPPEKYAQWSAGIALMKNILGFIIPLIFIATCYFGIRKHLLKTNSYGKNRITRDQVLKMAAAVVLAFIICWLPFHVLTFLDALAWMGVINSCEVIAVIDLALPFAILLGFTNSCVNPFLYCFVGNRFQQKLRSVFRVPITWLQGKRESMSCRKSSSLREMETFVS

Interstitial collagenase = target: T2, Interstitial collagenase (Homo sapiens, UniProt P03956); type: tissue-based, Rheumatoid synovial fibroblasts;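 note: MMP-1 enzyme inhibition assay using a peptide substrate; in other assays of this panel Not Active means under 50% inhibition at 10 µM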
T2 sequence (P03956 whole entry): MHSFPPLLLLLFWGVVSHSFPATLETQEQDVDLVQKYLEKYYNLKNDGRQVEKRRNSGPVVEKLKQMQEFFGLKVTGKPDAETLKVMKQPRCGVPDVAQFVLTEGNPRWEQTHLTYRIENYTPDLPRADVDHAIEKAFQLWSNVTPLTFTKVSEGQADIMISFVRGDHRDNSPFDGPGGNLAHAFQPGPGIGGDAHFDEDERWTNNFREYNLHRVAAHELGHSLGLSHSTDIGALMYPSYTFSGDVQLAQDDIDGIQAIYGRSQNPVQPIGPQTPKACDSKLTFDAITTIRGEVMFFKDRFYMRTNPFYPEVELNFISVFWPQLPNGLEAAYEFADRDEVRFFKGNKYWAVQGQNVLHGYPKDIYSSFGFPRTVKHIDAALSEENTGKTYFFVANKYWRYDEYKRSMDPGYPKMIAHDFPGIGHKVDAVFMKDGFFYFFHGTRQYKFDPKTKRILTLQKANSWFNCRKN

[5] = target: Epidermal growth factor receptor (Homo sapiens, UniProt P00533); assay: DRUGMATRIX: Protein Tyrosine Kinase, EGF Receptor enzyme inhibition (substrate: Poly(Glu:Tyr)); type: cell-based, Insect cells; settings: insect cells; Not Active = under 50% inhibition at 10 µM
[6] = DRUGMATRIX: Nicotinic Acetylcholine radioligand binding (ligand: [125I] Epibatidine); type: cell membranes, Membrane; settings: imr-32; Not Active = under 50% inhibition at 10 µM

Sodium-dependent noradrenaline transporter, sequence (P23975 whole entry): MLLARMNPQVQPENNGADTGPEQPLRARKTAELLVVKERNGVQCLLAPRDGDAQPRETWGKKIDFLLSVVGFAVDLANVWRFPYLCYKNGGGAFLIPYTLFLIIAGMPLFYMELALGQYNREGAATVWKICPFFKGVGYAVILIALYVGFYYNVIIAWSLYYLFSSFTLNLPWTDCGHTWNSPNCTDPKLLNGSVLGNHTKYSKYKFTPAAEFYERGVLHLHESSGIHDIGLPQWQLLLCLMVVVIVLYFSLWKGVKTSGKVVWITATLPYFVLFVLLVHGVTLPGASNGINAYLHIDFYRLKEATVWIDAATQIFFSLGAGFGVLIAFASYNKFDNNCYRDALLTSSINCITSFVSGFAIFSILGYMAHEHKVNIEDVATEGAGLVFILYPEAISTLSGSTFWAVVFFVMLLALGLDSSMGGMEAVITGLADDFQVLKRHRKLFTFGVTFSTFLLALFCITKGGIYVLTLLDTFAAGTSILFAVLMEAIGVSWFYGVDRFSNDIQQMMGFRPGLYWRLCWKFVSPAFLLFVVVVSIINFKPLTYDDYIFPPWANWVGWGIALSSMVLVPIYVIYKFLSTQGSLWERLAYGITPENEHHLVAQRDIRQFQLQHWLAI
Epidermal growth factor receptor, sequence (P00533 whole entry): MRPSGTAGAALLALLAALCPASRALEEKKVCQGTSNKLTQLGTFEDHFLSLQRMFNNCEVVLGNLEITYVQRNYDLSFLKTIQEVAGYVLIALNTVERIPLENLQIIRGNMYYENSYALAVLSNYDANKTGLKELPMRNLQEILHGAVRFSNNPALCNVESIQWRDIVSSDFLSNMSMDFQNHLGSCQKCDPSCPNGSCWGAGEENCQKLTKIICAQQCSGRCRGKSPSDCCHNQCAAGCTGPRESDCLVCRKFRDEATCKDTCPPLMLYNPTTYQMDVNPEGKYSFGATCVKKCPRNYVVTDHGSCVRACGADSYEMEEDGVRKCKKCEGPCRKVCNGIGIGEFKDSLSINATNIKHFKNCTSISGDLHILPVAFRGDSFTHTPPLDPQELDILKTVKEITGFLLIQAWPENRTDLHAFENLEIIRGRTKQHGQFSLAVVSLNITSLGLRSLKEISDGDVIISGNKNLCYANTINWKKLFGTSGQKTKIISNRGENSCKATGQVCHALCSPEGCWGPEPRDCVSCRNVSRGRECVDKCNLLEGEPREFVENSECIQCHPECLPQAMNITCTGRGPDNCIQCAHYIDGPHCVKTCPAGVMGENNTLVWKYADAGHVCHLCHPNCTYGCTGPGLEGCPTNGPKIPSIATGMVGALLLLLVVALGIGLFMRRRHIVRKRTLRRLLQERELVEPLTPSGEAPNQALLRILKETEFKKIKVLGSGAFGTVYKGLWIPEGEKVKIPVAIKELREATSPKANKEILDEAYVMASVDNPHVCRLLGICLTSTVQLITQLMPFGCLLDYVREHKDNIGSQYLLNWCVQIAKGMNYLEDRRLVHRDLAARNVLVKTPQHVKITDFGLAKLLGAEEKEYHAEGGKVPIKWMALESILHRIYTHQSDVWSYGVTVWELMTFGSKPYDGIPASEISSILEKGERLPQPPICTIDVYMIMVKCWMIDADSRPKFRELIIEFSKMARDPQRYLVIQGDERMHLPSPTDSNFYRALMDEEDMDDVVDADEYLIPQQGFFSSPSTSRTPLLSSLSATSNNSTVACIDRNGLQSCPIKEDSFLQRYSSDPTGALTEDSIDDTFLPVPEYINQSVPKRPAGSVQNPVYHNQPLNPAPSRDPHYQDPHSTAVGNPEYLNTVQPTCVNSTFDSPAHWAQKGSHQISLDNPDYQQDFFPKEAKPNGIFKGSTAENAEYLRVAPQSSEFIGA

SMILES	IC50 [1]	Ki [1]	IC50 [2]	IC50 [3]	Ki [3]	IC50 [4]	IC50 (Interstitial collagenase)	IC50 [5]	IC50 [6]	Ki [6]	IC50 ([3]; read-out: IC50) [nM]	Ki ([3]; read-out: Ki) [nM]
OCCO [ETHYLENE GLYCOL]	Not Active	Not Active	Not Active	Not Active	Not Active	Not Active	Not Active	Not Active	Not Active	Not Active		
CC(=O)OCC(CCn1cnc2cnc(N)nc21)COC(C)=O [FAMCICLOVIR]	Not Active	Not Active	Not Active	Not Active	Not Active	Not Active	Not Active	Not Active	Not Active	Not Active		
O=C(O)Cc1ccc(-c2ccccc2)cc1 [FELBINAC]	Not Active	Not Active	Not Active	Not Active	Not Active	Not Active	Not Active	Not Active	Not Active	Not Active		
CCOC(=O)C1=C(C)NC(C)=C(C(=O)OC)C1c1cccc(Cl)c1Cl (stereo not given) [FELODIPINE]	Not Active	Not Active	Not Active	Not Active	Not Active	Not Active	Not Active	Not Active	Not Active	Not Active		
CC(C(=O)O)c1ccc(-c2ccccc2)c(F)c1 (stereo not given) [FLURBIPROFEN]	Not Active	Not Active	Not Active	Not Active	Not Active	Not Active	Not Active	Not Active	Not Active	Not Active		
Cc1cn[nH]c1 [FOMEPIZOLE]	Not Active	Not Active	Not Active	Not Active	Not Active	Not Active	Not Active	Not Active	Not Active	Not Active		
NC[C@@H]1O[C@H](O[C@H]2[C@@H](O)[C@H](O[C@@H]3[C@@H](O)[C@H](N)C[C@H](N)[C@H]3O[C@H]3O[C@H](CN)[C@@H](O)[C@H](O)[C@H]3N)O[C@@H]2CO)[C@H](N)[C@@H](O)[C@@H]1O [FRAMYCETIN]	Not Active	Not Active	Not Active	Not Active	Not Active	Not Active	Not Active	Not Active	Not Active	Not Active		
C[C@H]([C@](O)(Cn1cncn1)c1ccc(F)cc1F)S(C)(=O)=O [GENACONAZOLE]	Not Active	Not Active	Not Active	Not Active	Not Active	Not Active	Not Active	Not Active	Not Active	Not Active		
Cc1cnc(C(=O)NCCc2ccc(S(=O)(=O)NC(=O)NC3CCCCC3)cc2)cn1 [GLIPIZIDE]	Not Active	Not Active	Not Active			Not Active	Not Active	Not Active	Not Active	Not Active	398	45
Cc1c(F)c(N2CCNC(C)C2)cc2c1c(=O)c(C(=O)O)cn2C1CC1 (stereo not given) [GREPAFLOXACIN]	Not Active	Not Active	Not Active	Not Active	Not Active	Not Active	Not Active	Not Active	Not Active	Not Active		
COc1ccccc1OCC(O)CO (stereo not given) [GUAIFENESIN]	Not Active	Not Active	Not Active	Not Active	Not Active	Not Active	Not Active	Not Active	Not Active	Not Active		
N=C(N)N/N=C/c1c(Cl)cccc1Cl [GUANABENZ]	Not Active	Not Active	Not Active	Not Active	Not Active	Not Active	Not Active	Not Active	Not Active	Not Active		
